Where two headings read alike, the source gives them in different places.
Experiments:
TRPV1 [1] = target: T1, TRPV1 (Homo sapiens, UniProt Q8NER1); experiment: TRPV1 Screening Assay (FLIPR); assay type: cell-based; details: HEK293-TetOFF-TRPV1, capsaicin (50 nM final), read-out: VR1 flipr CAPSAICIN IC50
T1 construct: expressed in transfected cells; host or cells: HEK293-Tet-OFF
Description: • 1) Cell line: HEK293-Tet^OFF-TRPV1 • 2) Media: MEM (Invitrogen) • 3) 10% Tet-FBS (Clontech #8630-1) • 4) Fungizone (Gibco #15290-018 (100×)) • 5) Penn/Strep (Gibco #15140-122 (100×)) • 6) Geneticin (Gibco #10131-027 (100×)) • 7) Hygromycin (Clontech #8057-1) • 8) Doxycycline (Clontech #8634-1) • 9) Trypsin/EDTA (Gibco #25200-056) • 10) 100 mm cell culture plates (Falcon #3003) • 11) 96-well poly-D-lysine plates (Fisher #08-774-256) • 12) Hank's Balanced Salt Solution (HBSS) (GIBCO #14025-092) • 13) HEPES Buffer (GIBCO #15630-080) • 14) 30% BSA (Research Organics #1334A) • 15) Probenecid (Sigma P-8761) • 16) Fluo-4, AM (50 μg) (Molecular robes F-23917) • 17) Pluronic F-127 20% (Molecular Probes P-3000). • 18) capsazepine (Sigma C-191) • 19) capsaicin (Sigma M-2028) • 20) compound plates (NUNC #442587) • 21) black pipet tips 96-well FLIPR (Robbins Scientific 1043-24-0) • 22) Additional reagents available from Fisher: methanol, DMSO, NaOH Reagent Preparation: 1) Cells: HEK293-Tet^OFF-TRPV11
• and Doxycycline 2.5 μg/mL final (from a 1000× stock in PBS) • Cells must be fed and/or split every 2-3 days (to maintain transcriptional repression with Doxycycline). • Must be split no more than 1:5 (50-75% confluency) to maintain growth and viability. • Grown on regular tissue culture plates (e.g. Falcon 3003-100 mm) • SpliT-cells via Trypsin/EDTA: incubate with trypsin at room temperature no longer than 5 min (HEK293 cells have a tendency to ball up if over trypsinized). • Two days prior to assay, the cells are split into 96-well plates in cell media in the absence of doxycycline at a concentration of 40,000 cells/well in a volume of 200 μL, 2) FLIPR buffer is prepared fresh:
Add 5 mL of Probenecid Solution, prepared as follows: 710 mg of probenecid (Sigma P-8761) is solubilized in 5 mL of 1 N NaOH, 5 mL of above buffer s added for final volume of 10 mL (of which 5 mL goes back into FLIPR buffer)
Combine 42 μL of dye mixture with 11 mL of FLIPR buffer/96-well plate.
Stock solution of 0.1 M capsaicin is prepared in MeOH (50 mg+1.6 mL MeOH). Store 50 μL aliquots at −80° C.
For assay: • a) Dilute stock by adding 0.8 μL into 1 mL of MeOH (final=80 μM). • b) Add 50 μL of diluted stock to 20 mL of FLIPR buffer (final=0.2 μM) • c) Agonist solution is added 150 μL/well to 96-well plate. • d) Final agonist concentration on cells will be 50 nM. […] Laser is adjusted upwards for an average signal≧10,000/well and less than 10% variability. 7) Compound addition conditions are as follows: • FLIPR setup (dual sequence parameters): • Sequence 1: • First interval 1 sec/60 counts • Second interval 6 sec/50 counts • Fluid addition=50 μL • Pipettor=110 μL • Dispense Speed=30 μL/sec • Sequence 2: • Second interval 1 sec/60 counts • Second interval 6 sec/40 counts • Fluid addition=50 μL • Pipettor height=140 μL • Dispense Speed=50 μL/sec Data Analysis:
1) Data from both additions is reported as Max-Min for each well

TRPV1 [2] = target: T1, TRPV1; experiment: TRPV1 Screening Assay (FLIPR); assay type: cell-based; details: HEK293-TetOFF-TRPV1, PMA, read-out: VR1 flipr PMA IC50
human NPC1L1 = target: T2, human NPC1L1 (Homo sapiens, UniProt Q9UHC9); experiment: NPC1L1 Binding Assay, human; details: HEK-293 cells expressing human NPC1L1; competition with 250 nM BODIPY-labeled glucuronidated ezetimibe, 4 h at 37° C.
T2 construct: expressed in transfected cells; host or cells: HEK-293 (geneticin selection)
T2 sequence (Q9UHC9 22-1359): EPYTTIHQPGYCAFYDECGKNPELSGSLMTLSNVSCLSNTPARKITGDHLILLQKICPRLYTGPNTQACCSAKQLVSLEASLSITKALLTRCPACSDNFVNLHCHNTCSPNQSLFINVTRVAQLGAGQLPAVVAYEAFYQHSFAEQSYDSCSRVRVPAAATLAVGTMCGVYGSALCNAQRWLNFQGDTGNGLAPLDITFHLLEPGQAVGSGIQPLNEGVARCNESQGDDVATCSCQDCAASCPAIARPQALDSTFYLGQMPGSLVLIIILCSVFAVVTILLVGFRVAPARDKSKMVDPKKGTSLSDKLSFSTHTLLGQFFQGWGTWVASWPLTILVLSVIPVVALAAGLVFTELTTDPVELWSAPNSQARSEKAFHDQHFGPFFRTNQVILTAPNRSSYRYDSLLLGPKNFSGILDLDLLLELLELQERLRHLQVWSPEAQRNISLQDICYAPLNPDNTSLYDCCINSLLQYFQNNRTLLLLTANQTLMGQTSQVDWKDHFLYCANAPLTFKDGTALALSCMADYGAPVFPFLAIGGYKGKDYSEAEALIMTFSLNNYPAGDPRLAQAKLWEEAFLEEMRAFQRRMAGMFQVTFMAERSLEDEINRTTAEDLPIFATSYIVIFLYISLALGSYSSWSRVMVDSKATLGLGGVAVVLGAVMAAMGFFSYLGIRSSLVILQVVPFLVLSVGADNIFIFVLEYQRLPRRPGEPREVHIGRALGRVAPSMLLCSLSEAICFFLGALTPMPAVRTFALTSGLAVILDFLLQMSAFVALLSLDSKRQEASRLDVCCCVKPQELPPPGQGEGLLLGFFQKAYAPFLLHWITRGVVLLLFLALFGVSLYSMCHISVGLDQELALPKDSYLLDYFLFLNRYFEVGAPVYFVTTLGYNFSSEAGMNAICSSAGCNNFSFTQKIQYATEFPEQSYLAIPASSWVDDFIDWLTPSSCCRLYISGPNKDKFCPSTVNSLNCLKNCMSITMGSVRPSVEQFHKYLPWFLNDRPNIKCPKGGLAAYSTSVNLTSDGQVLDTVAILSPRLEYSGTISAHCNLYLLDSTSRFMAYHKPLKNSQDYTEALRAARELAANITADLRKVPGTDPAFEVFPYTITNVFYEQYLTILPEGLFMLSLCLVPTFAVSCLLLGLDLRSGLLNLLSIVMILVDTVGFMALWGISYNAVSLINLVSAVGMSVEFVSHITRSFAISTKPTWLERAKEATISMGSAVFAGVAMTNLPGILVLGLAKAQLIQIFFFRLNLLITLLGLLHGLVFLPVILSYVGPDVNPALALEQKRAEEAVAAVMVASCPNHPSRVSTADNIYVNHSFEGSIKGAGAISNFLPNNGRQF
Method: HEK-293 cells expressing human NPC1L1 were plated into 384-well black/clear plates (BD Biosciences, Bedford Mass.) for binding experiments the following day. Cell growth media (DMEM, 10% fetal calf serum, 1 mg/mL geneticin, 100 Units/mL penicillin) was aspirated. Cell growth media ([…]) containing 250 nM BODIPY-labeled glucuronidated ezetimibe was added to each well. Cell growth media ([…] containing the indicated concentration of compound was then added to the wells unlabeled glucuronidated ezetimibe […]) was used to determine nonspecific binding. The binding reaction was allowed to proceed for 4 h at 37° C. Subsequently the cell growth media was aspired and the cells washed once with PBS. The remaining fluorescent labeled glucuronidated ezetimibe bound to the cells was quantified using a FlexStation plate reader (Molecular Devices, Sunnyvale Calif.) to measure fluorescence intensity. Ki values were determined from competition binding curves (n=4 for each point) using Prism and Activity Base software.

NPC1L1 = NPC1L1 (Rattus norvegicus, UniProt Q6T3U3); experiment: NPC1L1 Binding Assay, rat; details: competition with BODIPY-labeled glucuronidated ezetimibe

T1 sequence (Q8NER1 whole entry, species assumed): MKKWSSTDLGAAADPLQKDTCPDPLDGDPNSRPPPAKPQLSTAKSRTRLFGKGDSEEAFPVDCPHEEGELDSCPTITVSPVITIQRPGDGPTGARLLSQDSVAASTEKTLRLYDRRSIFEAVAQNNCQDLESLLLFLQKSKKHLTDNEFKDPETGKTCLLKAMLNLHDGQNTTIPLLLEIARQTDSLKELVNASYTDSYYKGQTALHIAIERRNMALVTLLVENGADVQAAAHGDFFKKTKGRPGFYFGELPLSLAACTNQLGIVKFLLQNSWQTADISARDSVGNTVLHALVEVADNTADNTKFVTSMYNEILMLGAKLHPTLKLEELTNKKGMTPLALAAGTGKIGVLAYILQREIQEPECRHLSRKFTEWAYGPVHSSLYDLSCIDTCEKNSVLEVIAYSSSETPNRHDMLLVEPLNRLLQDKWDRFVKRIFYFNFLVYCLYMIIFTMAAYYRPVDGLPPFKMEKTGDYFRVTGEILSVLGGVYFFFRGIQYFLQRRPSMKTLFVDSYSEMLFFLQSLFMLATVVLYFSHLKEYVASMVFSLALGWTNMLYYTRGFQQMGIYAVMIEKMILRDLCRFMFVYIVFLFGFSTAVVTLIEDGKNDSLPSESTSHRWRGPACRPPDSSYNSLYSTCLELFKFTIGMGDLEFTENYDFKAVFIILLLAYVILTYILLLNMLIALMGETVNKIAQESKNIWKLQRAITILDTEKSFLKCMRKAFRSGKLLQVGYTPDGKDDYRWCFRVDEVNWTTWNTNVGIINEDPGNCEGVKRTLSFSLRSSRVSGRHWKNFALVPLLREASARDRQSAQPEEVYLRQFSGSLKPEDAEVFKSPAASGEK

Compound | IC50 (TRPV1 [1]) [µM] | IC50 (TRPV1 [2]) [µM] | Ki (human NPC1L1) [µM] | Ki (NPC1L1) [µM]
O=C(Nc1ccc(C(F)(F)F)cc1)N1CCC2(CC1)C(=O)N(c1ccccc1)C2c1ccccn1 (centres unmarked) | 0.033 | 0.033 | – | –
CC(C)c1ccc(NC(=O)N2CCC3(CC2)C(=O)N(c2ccccc2)C3c2ccccn2)cc1 (centres unmarked) | 0.07 | 0.081 | – | –
O=C(Nc1cccc(Cl)c1Cl)N1CCC2(CC1)C(=O)N(c1ccccc1)C2c1ccccc1 (centres unmarked) | – | – | 6.62 | 4.95
Cc1ccc(C)c(NC(=O)N2CCC3(CC2)C(=O)N(c2ccccc2)C3c2ccccc2)c1 (centres unmarked) | – | – | 3.9 | 3.5
CC(C)c1ccc(NC(=O)N2CCC3(CC2)C(=O)N(c2ccccc2)C3c2ccccc2)cc1 (centres unmarked) [drawing 426] | 0.081 | 0.043 | – | –
CC(C)c1ccc(NC(=O)N2CCC3(CC2)C(=O)N(c2ccccc2)C3c2ccccc2)cc1 (centres unmarked) [drawing 427] | 0.138 | 0.099 | – | –
Cc1c(Cl)cccc1NC(=O)N1CCC2(CC1)C(=O)N(c1ccccc1)C2c1ccccc1 (centres unmarked) [drawing 435] | – | – | 3.77 | 3.62

More lines, now with the values ahead:

IC50 (TRPV1 [1]) [µM] | IC50 (TRPV1 [2]) [µM] | Ki (human NPC1L1) [µM] | Ki (NPC1L1) [µM] | Compound
– | – | 9.87 | 6.63 | O=C(Nc1c(F)cccc1F)N1CCC2(CC1)C(=O)N(c1ccccc1)C2c1ccccc1 (centres unmarked)
– | – | 2.32 | 1.17 | Cc1cccc(Cl)c1NC(=O)N1CCC2(CC1)C(=O)N(c1ccccc1)C2c1ccccc1 (centres unmarked) [drawing 434]
– | – | 1.01 | 1.06 | Cc1cccc(Cl)c1NC(=O)N1CCC2(CC1)C(=O)N(c1ccccc1)C2c1ccccc1 (centres unmarked) [drawing 443]
